Reference: patent US20160368919A1, “NOVEL PYRIDINE PYRAZINONES AS BET-FAMILY BROMODOMAIN INHIBITORS” (Pfizer Inc., priority 2015, published 2016)

What was measured:
[1] = test system: LPS-induced IL-6 production in human whole blood; experiment: IL-6 human whole blood (HWB) assay, LPS-stimulated, HTRF detection; format: cell-based; conditions: 1 ng/ml LPS, 4 hours
Procedure: Compound effect on IL-6 production was determined using lipopolysaccharide (LPS)-stimulated human whole blood and an HTRF (Homogeneous Time-Resolved Fluorescence) IL-6 detection kit (Human IL6 HTRF Assay CisBio 62IL6PEC). HWB was collected by venous puncture from healthy donors, transferred to a 50 ml polypropylene tube containing sodium heparin (14.3 units per mL of HWB) and then placed in a 37° C. water bath until use. To start the assay, 80 μL of heparin-treated HWB containing 1 ng/ml of LPS (equivalent to LPS ˜EC80 with regard to stimulation of IL-6 production in HWB under these assay conditions) was added to each well of a 384-well, sterile, endotoxin-free, polypropylene plate (Greiner 781281) containing 160 nL of various concentrations of test compound (each plate also contained positive and negative control wells to define the upper and lower limits of the assay signal). The plate was then placed in a thermoshaker incubator set to 370C (Boekel 270440). The final assay concentration (FAC) of test compound ranged from 60 to 0.0006 μM and the FAC of DMSO was 0.2%. After 4 hours, the assay plate was removed from the incubator and centrifuged at 700×g for 10 minutes. 5 μL of the resulting upper plasma layer was removed from each well and diluted 1:2 with 1×Dulbecco's phosphate buffered saline (DPBS). 5 μL of this diluted plasma was then transferred to a white 384-well low volume assay plate (Greiner 784080) containing 5 μL of combined anti-IL-6-Cryptate and anti-IL-6-XL665 detection antibodies (per manufacturer's protocol). The plate was then sealed with a Top Seal (Perkin Elmer 6005185) and incubated at room temperature (RT, 20° C.). After 16-18 hrs (overnight), the HTRF assay signal was read on an Envision 2103 plate reader using a Lance Delfia Dual/Bias mirror TRF laser excitation and emission was measured at 665 nm and 615 nm respectively. The percent (%) effect was calculated for each concentration of test compound and was relative to the amount of HTRF signal produced by the positive and negative control wells contained within each assay plate. The concentrations and % effect values for test compounds were plotted versus each other with a proprietary curve fitting program using a four-parameter logistic dose response equation and the concentration of compound required for 50% effect (IC50) was determined.

[2] = target: T1, BRD4 BD1 (Homo sapiens, UniProt O60885); experiment: BRD4 BD1 Fluorescence Polarization (FP) competition binding assay; conditions: BRD4 BD1 40 nM, probe PFI-411FP 2 nM
T1 construct: His-tagged BRD4 BD1 (44-160); made in house
Procedure: Compound binding to BRD4 BD1 was assessed with a FP competition binding assay. […] All assay components were diluted in 50 mM HEPES pH 7.4 containing 0.08% bovine serum albumin (assay buffer). To start the assay, 8 μL of BRD4 BD1 was added to each well of a low volume 384-well black flat bottom microtiter plate (Corning 3820) containing 4 μl of various concentrations of test compound (each plate also contained positive and negative control wells to define the upper and lower limits of the assay signal). After addition of BRD4 BD1, the assay plate was incubated at room temperature (RT, 20° C.). After 15 minutes, 4 μL of PFI-411FP was added to each well and the assay plate was placed in the dark at RT. The final assay concentration (FAC) of PFI-411FP was 2 nM, the FAC of BRD4 BD1 was 40 nM, the FAC of test compound ranged from 120 to 0.0012 μM and the FAC of DMSO was 0.4%. After 60 min, polarization values were measured with an Envision 2103 multilabel reader (Perkin Elmer) using a Cy5 dual enhanced mirror and excitation at 620 nm and emission at 688 nm. The percent (%) effect was calculated for each concentration of test compound and was relative to the amount of polarization signal produced by the positive and negative control wells contained within each assay plate. The concentrations and % effect values for test compounds were plotted versus each other with a proprietary curve fitting program using a four-parameter logistic dose response equation and the concentration of compound required for 50% effect (IC50) was determined. The Ki values of competitive inhibitors were calculated using the equation described by Nikolovska-Coleska et al. (Development and optimization of a binding assay for the XIAP BIR3 domain using fluorescence polarization. Analytical Biochemistry (2004) 332: 261-273).

Row | Compound | IC50 [1] [nM] | IC50 [2] [nM]
1 | CCC(CC)n1c(=O)c(NCCC(=O)O)nc2ccc(-c3c(C)noc3C)nc21 [Example 56, N-[6-(3,5-dimethyl-1,2-oxazol-4-yl)-3-oxo-4-(pentan-3-yl)-3,4-dihydropyrido[2,3-b]pyrazin-2-yl]-beta-alanine] | 11900 | 346
2 | CC[C@@H](c1ccccc1)n1c(=O)c(NCCC(=O)O)nc2ccc(-c3c(C)noc3C)nc21 [Example 44, N-{6-(3,5-dimethyl-1,2-oxazol-4-yl)-3-oxo-4-[(1S)-1-phenylpropyl]-3,4-dihydropyrido[2,3-b]pyrazin-2-yl}-beta-alanine] | 2560 | 89.8
3 | Cc1noc(C)c1-c1ccc2nc(NCCN3CCOCC3)c(=O)n([C@@H](C)c3ccccc3)c2n1 [Example 40, 6-(3,5-dimethyl-1,2-oxazol-4-yl)-2-{[2-(morpholin-4-yl)ethyl]amino}-4-[(1S)-1-phenylethyl]pyrido[2,3-b]pyrazin-3(4H)-one] | 1390 | 225
4 | CC[C@@H](c1ccccc1)n1c(=O)c(NCCC(=O)O)nc2ccc(N(C)C(=O)CO)nc21 [Example 4, N-{6-[(hydroxyacetyl)(methyl)amino]-3-oxo-4-[(1S)-1-phenylpropyl]-3,4-dihydropyrido[2,3-b]pyrazin-2-yl}-beta-alanine] | 14100 | 956
5 | Cc1noc(C)c1-c1ccc2nc(NCCC(=O)NS(C)(=O)=O)c(=O)n([C@@H](C)c3ccccc3)c2n1 [Example 50, N^3-{6-(3,5-dimethyl-1,2-oxazol-4-yl)-3-oxo-4-[(1S)-1-phenylethyl]-3,4-dihydropyrido[2,3-b]pyrazin-2-yl}-N-(methylsulfonyl)-beta-alaninamide] | 32000 | 235
6 | CC[C@@H](c1ccccc1)n1c(=O)c(NCCC(=O)O)nc2ccc(N(C)C(C)=O)nc21 [Example 3, N-{6-[acetyl(methyl)amino]-3-oxo-4-[(1S)-1-phenylpropyl]-3,4-dihydropyrido[2,3-b]pyrazin-2-yl}-beta-alanine] | 2050 | 117
7 | COc1ccccc1[C@H](C)n1c(=O)c(NCCC(=O)O)nc2ccc(-c3c(C)noc3C)nc21 [Example 43, N-{6-(3,5-dimethyl-1,2-oxazol-4-yl)-4-[(1S)-1-(2-methoxyphenyl)ethyl]-3-oxo-3,4-dihydropyrido[2,3-b]pyrazin-2-yl}-beta-alanine] | 8350 | 576
8 | CCC(=O)N(C)c1ccc2nc(NCCC(=O)NC)c(=O)n([C@@H](COC)c3ccccc3)c2n1 [Example 31, N^3-{4-[(1R)-2-methoxy-1-phenylethyl]-6-[methyl(propanoyl)amino]-3-oxo-3,4-dihydropyrido[2,3-b]pyrazin-2-yl}-N-methyl-beta-alaninamide] | 164 | 110
9 | COc1ccccc1[C@H](C)n1c(=O)c(NCCN2CCOCC2)nc2ccc(-c3c(C)noc3C)nc21 [Example 35, 6-(3,5-dimethyl-1,2-oxazol-4-yl)-4-[(1S)-1-(2-methoxyphenyl)ethyl]-2-{[2-(morpholin-4-yl)ethyl]amino}pyrido[2,3-b]pyrazin-3(4H)-one] | 746 | 195
10 | CCC[C@H](COC)n1c(=O)c(NCCC(=O)O)nc2ccc(N(C)C(=O)CC)nc21 [Example 17, N-{4-[(2R)-1-methoxypentan-2-yl]-6-[methyl(propanoyl)amino]-3-oxo-3,4-dihydropyrido[2,3-b]pyrazin-2-yl}-beta-alanine] | 2430 | 268
11 | Cc1noc(C)c1-c1ccc2nc(NCCC(=O)O)c(=O)n([C@@H](C)C3CCCCC3)c2n1 [Example 55, N-{4-[(1S)-1-cyclohexylethyl]-6-(3,5-dimethyl-1,2-oxazol-4-yl)-3-oxo-3,4-dihydropyrido[2,3-b]pyrazin-2-yl}-beta-alanine] | 11400 | 130
12 | CC[C@@H](COC)n1c(=O)c(NCCC(=O)O)nc2ccc(-c3c(C)noc3C)nc21 [Example 46, N-{6-(3,5-dimethyl-1,2-oxazol-4-yl)-4-[(2S)-1-methoxybutan-2-yl]-3-oxo-3,4-dihydropyrido[2,3-b]pyrazin-2-yl}-beta-alanine] | 6220 | 355
13 | CNc1nc2ccc(N(C)C(C)=O)nc2n([C@@H](C)c2ccccc2OC)c1=O [Example 5, N-{4-[(1S)-1-(2-methoxyphenyl)ethyl]-2-(methylamino)-3-oxo-3,4-dihydropyrido[2,3-b]pyrazin-6-yl}-N-methylacetamide] | 1580 | 653
14 | CCC(=O)N(C)c1ccc2nc(NCCC(=O)NC)c(=O)n([C@H](c3ccccn3)C(C)C)c2n1 [Example 34, N-methyl-N^3-{6-[methyl(propanoyl)amino]-4-[(1S)-2-methyl-1-(pyridin-2-yl)propyl]-3-oxo-3,4-dihydropyrido[2,3-b]pyrazin-2-yl}-beta-alaninamide] | 426 | 167
15 | CCC(=O)N(C)c1ccc2nc(NCC(=O)NC)c(=O)n([C@@H](CC)c3ccccc3)c2n1 [Example 29, N-methyl-N-(2-{[2-(methylamino)-2-oxoethyl]amino}-3-oxo-4-[(1S)-1-phenylpropyl]-3,4-dihydropyrido[2,3-b]pyrazin-6-yl)propanamide] | 239 | 102
16 | COc1ccccc1[C@H](C)n1c(=O)c(NCCC(=O)O)nc2ccc(N(C)C(C)=O)nc21 [Example 1, N-{6-[acetyl(methyl)amino]-4-[(1S)-1-(2-methoxyphenyl)ethyl]-3-oxo-3,4-dihydropyrido[2,3-b]pyrazin-2-yl}-beta-alanine] | 38400 | 730
17 | Cc1noc(C)c1-c1ccc2nc(NCCC(=O)O)c(=O)n([C@H](c3ccccc3)C(C)C)c2n1 [Example 53, N-{6-(3,5-dimethyl-1,2-oxazol-4-yl)-4-[(1S)-2-methyl-1-phenylpropyl]-3-oxo-3,4-dihydropyrido[2,3-b]pyrazin-2-yl}-beta-alanine] | 9260 | 125
18 | CNC(=O)CNc1nc2ccc(-c3c(C)noc3C)nc2n([C@@H](C)c2ccccc2OC)c1=O [Example 57, N^2-{6-(3,5-dimethyl-1,2-oxazol-4-yl)-4-[(1S)-1-(2-methoxyphenyl)ethyl]-3-oxo-3,4-dihydropyrido[2,3-b]pyrazin-2-yl}-N-methylglycinamide] | 919 | 159
19 | Cc1noc(C)c1-c1ccc2nc(NCCC(=O)O)c(=O)n([C@@H](C)c3ccccc3)c2n1 [Example 42, N-{6-(3,5-dimethyl-1,2-oxazol-4-yl)-3-oxo-4-[(1S)-1-phenylethyl]-3,4-dihydropyrido[2,3-b]pyrazin-2-yl}-beta-alanine] | 6160 | 146
20 | Cc1noc(C)c1-c1ccc2nc(NCCC(=O)O)c(=O)n([C@H](c3ccccn3)C(C)C)c2n1 [Example 54, N-{6-(3,5-dimethyl-1,2-oxazol-4-yl)-4-[(1S)-2-methyl-1-(pyridin-2-yl)propyl]-3-oxo-3,4-dihydropyrido[2,3-b]pyrazin-2-yl}-beta-alanine] | 2640 | 99.4
21 | CCC(=O)N(C)c1ccc2nc(NCCC(=O)NC)c(=O)n([C@@H](CC)c3ccccc3)c2n1 [Example 32, N-methyl-N^3-{6-[methyl(propanoyl)amino]-3-oxo-4-[(1S)-1-phenylpropyl]-3,4-dihydropyrido[2,3-b]pyrazin-2-yl}-beta-alaninamide] | 266 | 64.8
